Measurements reported in publication PMC5293596 (Chemical research in toxicology, 2016).

What was measured:
[1] = target: T1, P450 2A6 (Homo sapiens, UniProt P11509); test: Oxidation by P450 2A6 bicistronic membranes, HPLC; conditions: product peaks only with NADPH-generating system
T1 sequence (P11509 1-494): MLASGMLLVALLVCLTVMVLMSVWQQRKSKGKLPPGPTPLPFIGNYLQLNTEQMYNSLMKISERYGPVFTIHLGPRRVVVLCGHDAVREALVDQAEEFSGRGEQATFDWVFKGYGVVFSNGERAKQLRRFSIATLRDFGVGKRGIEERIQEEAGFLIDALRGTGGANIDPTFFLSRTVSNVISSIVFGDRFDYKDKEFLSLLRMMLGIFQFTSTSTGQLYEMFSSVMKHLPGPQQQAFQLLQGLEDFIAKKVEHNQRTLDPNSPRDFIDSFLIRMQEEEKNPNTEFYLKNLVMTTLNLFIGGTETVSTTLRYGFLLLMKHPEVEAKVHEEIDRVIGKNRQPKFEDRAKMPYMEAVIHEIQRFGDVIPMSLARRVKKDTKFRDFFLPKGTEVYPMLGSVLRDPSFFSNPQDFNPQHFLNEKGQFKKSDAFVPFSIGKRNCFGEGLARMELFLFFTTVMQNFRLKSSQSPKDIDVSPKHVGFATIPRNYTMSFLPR

[2] = target: T2, P450 2A13 (Homo sapiens, UniProt Q16696); test: Oxidation by P450 2A13 bicistronic membranes, HPLC; conditions: for metabolism (HPLC): product peaks only with NADPH-generating system; for Formation of oxygenated products on LC-MS analysis: results not shown
T2 sequence (Q16696 1-494): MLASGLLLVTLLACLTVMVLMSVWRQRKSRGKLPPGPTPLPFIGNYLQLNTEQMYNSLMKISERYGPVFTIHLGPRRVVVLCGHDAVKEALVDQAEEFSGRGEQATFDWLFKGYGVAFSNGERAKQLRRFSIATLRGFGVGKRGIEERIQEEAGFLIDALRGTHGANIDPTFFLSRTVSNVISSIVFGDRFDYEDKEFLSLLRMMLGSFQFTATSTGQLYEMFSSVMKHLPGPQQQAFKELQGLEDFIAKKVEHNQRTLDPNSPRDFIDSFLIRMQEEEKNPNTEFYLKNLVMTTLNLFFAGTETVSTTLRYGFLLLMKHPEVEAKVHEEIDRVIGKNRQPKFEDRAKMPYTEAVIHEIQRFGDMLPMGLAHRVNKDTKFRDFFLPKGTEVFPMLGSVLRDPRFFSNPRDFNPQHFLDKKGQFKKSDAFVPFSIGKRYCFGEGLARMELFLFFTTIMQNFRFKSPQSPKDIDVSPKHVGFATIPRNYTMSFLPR

[3] = target: T3, P450 1A1 (Homo sapiens, UniProt P04798); test: 7-Ethoxyresorufin O-deethylation by P450 1A1
T3 sequence (P04798 1-512): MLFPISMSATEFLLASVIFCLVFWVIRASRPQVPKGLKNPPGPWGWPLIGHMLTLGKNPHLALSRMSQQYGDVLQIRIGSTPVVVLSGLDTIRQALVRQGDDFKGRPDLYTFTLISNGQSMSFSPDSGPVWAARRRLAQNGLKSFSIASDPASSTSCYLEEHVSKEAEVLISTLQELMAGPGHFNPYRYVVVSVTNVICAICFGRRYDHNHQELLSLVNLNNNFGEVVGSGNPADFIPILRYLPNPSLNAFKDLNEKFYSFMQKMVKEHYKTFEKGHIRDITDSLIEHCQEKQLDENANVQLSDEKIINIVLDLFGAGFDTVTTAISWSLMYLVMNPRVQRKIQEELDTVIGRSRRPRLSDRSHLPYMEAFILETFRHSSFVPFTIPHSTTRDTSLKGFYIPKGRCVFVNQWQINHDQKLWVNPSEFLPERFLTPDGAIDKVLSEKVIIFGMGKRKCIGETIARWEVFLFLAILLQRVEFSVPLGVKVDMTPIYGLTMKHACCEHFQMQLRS

[4] = target: T4, P450 1A2 (Homo sapiens, UniProt P05177); test: 7-Ethoxyresorufin O-deethylation by P450 1A2
T4 sequence (P05177 1-516): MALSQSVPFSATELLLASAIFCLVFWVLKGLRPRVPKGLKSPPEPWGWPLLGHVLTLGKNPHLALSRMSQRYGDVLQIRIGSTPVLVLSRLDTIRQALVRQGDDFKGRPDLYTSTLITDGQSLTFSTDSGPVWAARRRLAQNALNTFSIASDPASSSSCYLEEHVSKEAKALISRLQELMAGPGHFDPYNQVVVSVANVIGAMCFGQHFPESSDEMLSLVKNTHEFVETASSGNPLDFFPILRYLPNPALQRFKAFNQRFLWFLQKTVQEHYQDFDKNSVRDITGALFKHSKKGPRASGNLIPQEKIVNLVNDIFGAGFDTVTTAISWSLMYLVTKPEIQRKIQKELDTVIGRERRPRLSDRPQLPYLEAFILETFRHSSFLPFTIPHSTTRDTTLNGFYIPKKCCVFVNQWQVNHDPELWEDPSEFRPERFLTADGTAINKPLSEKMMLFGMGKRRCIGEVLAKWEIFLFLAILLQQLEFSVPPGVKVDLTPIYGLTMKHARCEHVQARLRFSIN

[5] = target: T5, P450 1B1 (Homo sapiens, UniProt Q16678, L432V); test: 7-Ethoxyresorufin O-deethylation by P450 1B1
T5 sequence (Q16678 1-543 L432V): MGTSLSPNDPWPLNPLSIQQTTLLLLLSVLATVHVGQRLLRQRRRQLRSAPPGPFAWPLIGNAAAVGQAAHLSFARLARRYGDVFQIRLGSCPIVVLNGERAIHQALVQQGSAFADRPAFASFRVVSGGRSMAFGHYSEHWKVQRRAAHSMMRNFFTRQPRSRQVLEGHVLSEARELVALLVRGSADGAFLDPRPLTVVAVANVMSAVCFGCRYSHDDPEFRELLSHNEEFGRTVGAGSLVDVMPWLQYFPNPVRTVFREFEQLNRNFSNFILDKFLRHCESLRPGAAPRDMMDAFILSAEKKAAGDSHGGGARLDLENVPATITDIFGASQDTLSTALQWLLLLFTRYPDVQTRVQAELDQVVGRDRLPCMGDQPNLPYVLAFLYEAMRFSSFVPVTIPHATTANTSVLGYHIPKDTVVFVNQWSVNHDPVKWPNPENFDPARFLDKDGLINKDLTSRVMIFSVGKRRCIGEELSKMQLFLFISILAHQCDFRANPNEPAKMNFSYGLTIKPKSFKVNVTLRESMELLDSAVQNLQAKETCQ

[6] = target: T1, P450 2A6; test: Spectral binding titration; conditions: P450 2A6 1.0 μM, pH 7.4; means and S.E.
[7] = target: T2, P450 2A13; test: Spectral binding titration; conditions: P450 2A13
[8] = target: T4, P450 1A2; test: Oxidation by P450 1A2 bicistronic membranes, HPLC; conditions: Figure 5
[9] = target: T6, P450 1B1 (1B1.3, L432V) (Homo sapiens, UniProt Q16678, L432V); test: Oxidation by P450 1B1 bicistronic membranes, HPLC; conditions: P450 1B1.3; Figure 5
T6 sequence (Q16678 1-543 L432V): T5 sequence (Q16678 1-543 L432V)

[10] = test system: P450 2A13; test: Spectral binding titration; parameters: species or system human; conditions: P450 2A13 vs P450 2A6

Row | SMILES | metabolism (HPLC) [1] | metabolism (HPLC) [2] | also measured
1 | CC#Cc1ccc2c(ccc3ccccc32)c1 [2PPh, 2-(1-propynyl)phenanthrene] | yes | yes | 
2 | CCOc1ccc2nc3ccc(=O)cc-3oc2c1 [7-ethoxyresorufin] |  |  | Catalytic activity, 7-ethoxyresorufin O-deethylation (nmol product formed/min/nmol P450) [3]: 35 min⁻¹; Catalytic activity, 7-ethoxyresorufin O-deethylation (nmol product formed/min/nmol P450) [4]: 3.2 min⁻¹; Catalytic activity, 7-ethoxyresorufin O-deethylation (nmol product formed/min/nmol P450) [5]: 14 min⁻¹
3 | C#Cc1ccc(-c2ccccc2)cc1 [4EB, 4-ethynylbiphenyl] | not detected | not detected | 
4 | C#Cc1ccc2ccc3ccccc3c2c1 [3EPh, 3-ethynylphenanthrene] | yes | yes | Formation of oxygenated products on LC-MS analysis [2]: formation of oxygenated products
5 | CC#Cc1ccc2ccc3ccccc3c2c1 [3PPh, 3-(1-propynyl)phenanthrene] |  | yes | Type I spectra Ks (spectral dissociation constant) [6]: ND (10 μM)
6 | c1ccc(-c2ccccc2)cc1 [biphenyl] | yes | yes | ΔAmax of Type I binding spectral change [7]: 0.045
7 | C#Cc1ccc2c(ccc3ccccc32)c1 [2EPh, 2-ethynylphenanthrene] | yes | yes | Oxidation (product formation on HPLC) [8]: oxidized 2EPh at lower levels than P450s 2A13 and 2A6; Oxidation (product formation on HPLC) [9]: oxidized 2EPh at lower levels than P450s 2A13 and 2A6; Formation of oxygenated products on LC-MS analysis [2]: formation of oxygenated products
8 | CCC#Cc1ccc(-c2ccccc2)cc1 [4BuB, 4-butynylbiphenyl] |  | not detected | 
9 | C#CCOc1ccccc1-c1ccccc1 [2BPE, 2-biphenyl propargyl ether] |  | yes | 
10 | C#Cc1ccc2ccccc2c1 [2EN, 2-ethynylnaphthalene] | yes | yes | ΔAmax/Ks ratio with P450 2A13 relative to that with P450 2A6 [10]: about 10 fold
11 | C#CCOc1ccccc1-c1ccccc1OCC#C [22BDPE, 2,2′-biphenyl dipropagyl ether] |  | not detected | 
12 | C#CCOc1ccc(-c2ccc(OCC#C)cc2)cc1 [44BDPE, 4,4′-biphenyl dipropargyl ether] | not detected | not detected | 
13 | c1ccc2c(c1)ccc1ccccc12 [phenanthrene] | yes | yes | ΔAmax of Type I binding spectral change [7]: 0.063
14 | C#CCOc1ccc(-c2ccccc2)cc1 [4BPE, 4-biphenyl propargyl ether] | yes | yes | 
15 | C#CCOCc1ccccc1-c1ccccc1 [2BMPE, 2-biphenyl methyl propargyl ether] |  | not detected | 
16 | CC#Cc1ccc(-c2ccccc2)cc1 [4PB, 4-propynylbiphenyl] |  | not detected | 
17 | C#Cc1cc2ccccc2c2ccccc12 [9EPh, 9-ethynylphenanthrene] |  | not detected | Type I spectra Ks (spectral dissociation constant) [6]: ND (10 μM)
18 | CC#Cc1cc2ccccc2c2ccccc12 [9PPh, 9-(1-propynyl)phenanthrene] |  | not detected | 
19 | C#CCOCc1ccc(-c2ccccc2)cc1 [4BMPE, 4-biphenyl methyl propargyl ether] |  | not detected | 
